In patent US8471027B2, “Adamantyl compounds” (Hoffmann-La Roche Inc., priority 2011, dated 2013):

Tests used:
JNK1 = JNK1 (Homo sapiens, UniProt P45983); assay: In vitro JNK1 Assay (TR-FRET, phosphorylation of GST-c-Jun); format: biochemical; conditions: 0.2 nM JNK1, 26.7 nM GST-c-Jun, 2 μM ATP
Procedure: Phosphorylation of GST-c-Jun protein (amino acid residues 1-79) was measured as JNK1 activity. […] The reaction buffer contained 50 mM HEPES, pH 7.0, 10 mM MgCl2, 1 mM DTT, 0.1 mM Na3 VO4 and 0.2 mg/mL BSA. After 30 min. incubation at room temperature, the reaction was terminated by adding buffer containing 8 mM EDTA and a polyclonal anti-phospho-c-Jun antibody (Cell Signaling #9261L), followed by an additional incubation of 30 min. at room temperature. […] Time-resolved Fluorescence Resonance Energy Transfer (TR-FRET) signals were measured 1 hr. later on the EnVision reader (Perkin Elmer). Compound potency was assessed at 10 serially diluted concentrations. Percentage of inhibition at each concentration was determined to generate an IC50 value for each compound.

[1] = test system: phospho(Ser63)-c-jun in HK-2 cells; assay: Cell-based assay for JNK inhibitors: in-cell ELISA of TNFα-stimulated phospho(Ser63)-c-jun in HK-2 cells; conditions: Homo sapiens, 10 ng/mL TNFα, 60 min preincubation with compound
Procedure: Cell-Based Assay for JNK Inhibitors
The cell-based assay employed the in-cell ELISA method to determine the ability of compounds to prevent the generation of phospho(Ser63)-c-jun in HK-2 cells (human proximal tubule cells) in response to stimulation with tumor necrosis factor α (TNFα). In brief, for quantification of phospho(Ser63)-c-jun, the cells (in 96-well format) were fixed and permeablized then incubated sequentially with a rabbit anti-phospho-c-jun First Antibody specific for the presence of the phospho-Ser63 epitope and a donkey anti-rabbit IgG Second Antibody linked to horseradish peroxidase (HRP) for colorimetric quantitation of binding. For determination of non-specific binding of the First Antibody, Blank wells were preincubated with a mouse anti-phospho(Ser63)-c-jun Blocking Antibody that prevented specific binding of the First Antibody to the phospho-Ser63 epitope, but which was not recognized by the donkey anti-rabbit IgG Second Antibody. […] Blank wells received no TNFα stimulation or compound. Additional Control wells received TNFα stimulation, but no compound. The signal obtained in this case was considered the value for 0% inhibition (Control value).
Stock cultures of HK-2 cells (ATCC, Manassas, Va.) were grown under a 5% CO2/[…] atmosphere at 37 degrees C. in Keratinocyte-SFM medium (KSFM, Invitrogen, Grand Island, N.Y.) containing 5 μg/L epidermal growth factor and 5 mg/L bovine pituitary extract (both supplied with the medium), additionally supplemented with 10% (v/v) fetal calf serum (FCS; Invitrogen, Grand Island, N.Y.) and 1% (v/v) antibiotic-antimycotic (ABAM: Sigma, St. Louis, Mo.). For assays, cells were seeded in collagen coated 96-well polystyrene plates (BD Biosciences, Franklin Lakes, N.J.) at a density of 40,000 cells/well and cultured for 24 h in the same medium (100 μL/well) followed by a further 16-24 h in 100 μL of similar medium, but without FCS. […] Cells were incubated for a further 30 minutes and then the medium was aspirated and the wells washed with 100 μL/well PBS followed by the addition of 100 μL 3.7% (v/v) Formaldehyde (Fisher Scientific, Fair Lawn, N.J.) in PBS. Plates were then allowed to stand at room temperature for 20 minutes before being washed with 200 μL/well of PBS. (Further steps were performed immediately or the plates were stored at 4 degrees C. and the assay completed the next day.) To each well was added 100 μL 1% (v/v) TritonX-100 (Sigma, St. Louis, Mo.) in PBS followed by 20 minutes standing at room temperature, washing with 200 μL/well PBS, the addition of 100 μL/well of Quenching buffer (1% (v/v) hydrogen peroxide (Sigma, St. Louis, Mo.) and 0.1% (w/v) sodium azide (Fisher Scientific, Fair Lawn, N.J.)) in PBS and a further 20 minutes at room temperature. Plates were then washed twice with 200 μL/well of 0.1% (v/v) Tween-20 (Teknova, Hollister, Calif.) in PBS before addition of 200 μL/well of 2% BSA/0.10% Tween-20 in PBS and a further 1 hour at room temperature. At this time, buffer was removed from Blank wells and replaced with 90 μL/well of mouse anti-phospho-c-jun-Ser63 (BD Bioscience, 558036) diluted 1:4000 in PBS containing 1% BSA/0.1% Tween-20 (Antibody Dilution Buffer). All other wells are replaced with 90 μL/well of rabbit anti-phospho-c-jun-Ser63 (Cell Signaling, 9261) diluted 1:250 in Antibody Dilution Buffer. After a further one hour, rabbit anti-phospho-c-jun-Ser63 is added directly to the solution in the Blank wells resulting in 1:250 dilution of this antibody. Plates were then placed on a slowly rotating platform at 4 degrees C. overnight. Wells were then washed thrice with 200 μL/well PBS/0.1% Tween-20. After addition of the third wash, the plates were placed on a slowly rotating platform for 15 minutes at room temperature. […]

Chain of JNK1 (P45983 whole entry, species assumed, the tested form may be a part): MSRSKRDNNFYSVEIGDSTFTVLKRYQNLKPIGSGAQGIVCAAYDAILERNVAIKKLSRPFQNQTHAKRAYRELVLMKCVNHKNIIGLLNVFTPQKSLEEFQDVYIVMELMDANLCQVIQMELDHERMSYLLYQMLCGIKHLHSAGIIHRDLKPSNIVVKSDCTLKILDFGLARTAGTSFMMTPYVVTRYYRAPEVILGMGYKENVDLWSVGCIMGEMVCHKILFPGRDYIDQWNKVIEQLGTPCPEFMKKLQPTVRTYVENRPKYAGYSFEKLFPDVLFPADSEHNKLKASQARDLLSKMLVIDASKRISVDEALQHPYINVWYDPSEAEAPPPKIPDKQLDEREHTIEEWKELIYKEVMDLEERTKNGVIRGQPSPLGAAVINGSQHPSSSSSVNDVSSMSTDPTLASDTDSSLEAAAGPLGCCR

IC50 (JNK1) [nM]	EC50 [1] [nM]	Compound
47	8500	COC(=O)c1c(Cc2ccc(C(=O)N[C@H]3[C@@H]4C[C@@H]5C[C@H]3C[C@@](O)(C5)C4)cc2)c(=O)c2cccnc2n1-c1ccccc1 [Compound I-2, rel-3-[4-((1S,2R,3R,5S,7S)-5-Hydroxy-adamantan-2-ylcarbamoyl)-benzyl]-4-oxo-1-phenyl-1,4-dihydro-[1,8]naphthyridine-2-carboxylic acid methyl ester]
12	5800	COC(=O)c1c(Cc2ccc(C(=O)N[C@@H]3[C@@H]4C[C@@H]5C[C@H]3C[C@@](O)(C5)C4)cc2)c(=O)c2ccc(Cl)cc2n1-c1ccccc1 [Compound I-3, rel-7-Chloro-3-[4-((1S,2S,3R,5S,7S)-5-hydroxy-adamantan-2-ylcarbamoyl)-benzyl]-4-oxo-1-phenyl-1,4-dihydro-quinoline-2-carboxylic acid methyl ester]
51	6300	COC(=O)c1c(Cc2ccc(C(=O)N[C@H]3[C@@H]4C[C@@H]5C[C@H]3C[C@@](O)(C5)C4)cc2)c(=O)c2ccc(Cl)cc2n1-c1ccccc1 [Compound I-4, rel-7-Chloro-3-[4-((1S,2R,3R,5S,7S)-5-hydroxy-adamantan-2-ylcarbamoyl)-benzyl]-4-oxo-1-phenyl-1,4-dihydro-quinoline-2-carboxylic acid methyl ester]
330		O=C(N[C@@H]1[C@@H]2C[C@@H]3C[C@H]1C[C@@](O)(C3)C2)c1ccc(Cc2cn(-c3ccccn3)c3cc(Cl)ccc3c2=O)cc1 [Compound I-5, rel-4-(7-Chloro-4-oxo-1-pyridin-2-yl-1,4-dihydro-quinolin-3-ylmethyl)-N-((1S,2S,3R,5S,7S)-5-hydroxy-adamantan-2-yl)-benzamide]
	44000	COC(=O)c1c(Cc2ccc(C(=O)N[C@H]3[C@@H]4C[C@@H]5C[C@H]3C[C@@](N)(C5)C4)cc2)c(=O)c2cccnc2n1-c1ccccc1 [Compound I-8, rel-3-[4-((1S,2R,3R,5S,7S)-5-amino-adamantan-2-ylcarbamoyl)-benzyl]-4-oxo-1-phenyl-1,4-dihydro-[1,8]naphthyridine-2-carboxylic acid methyl ester]
27	3200	COC(=O)c1c(Cc2ccc(C(=O)N[C@@H]3[C@@H]4C[C@@H]5C[C@H]3C[C@@](N)(C5)C4)cc2)c(=O)c2ccc(Cl)cc2n1-c1ccccc1 [Compound I-9, rel-3-[4-((1S,2S,3R,5S,7S)-5-Amino-adamantan-2-ylcarbamoyl)-benzyl]-7-chloro-4-oxo-1-phenyl-1,4-dihydro-quinoline-2-carboxylic acid methyl ester]
30	3500	COC(=O)c1c(Cc2ccc(C(=O)N[C@@H]3[C@@H]4C[C@@H]5C[C@H]3C[C@@](NC(C)=O)(C5)C4)cc2)c(=O)c2ccc(Cl)cc2n1-c1ccccc1 [Compound I-10, rel-3-[4-((1S,2S,3R,5S,7S)-5-Acetylamino-adamantan-2-ylcarbamoyl)-benzyl]-7-chloro-4-oxo-1-phenyl-1,4-dihydro-quinoline-2-carboxylic acid methyl ester]
62	6900	COC(=O)c1c(Cc2ccc(C(=O)N[C@@H]3[C@@H]4C[C@@H]5C[C@H]3C[C@@](NC(=O)C(C)(C)C)(C5)C4)cc2)c(=O)c2ccc(Cl)cc2n1-c1ccccc1 [Compound I-11, rel-7-Chloro-3-{4-[(1S,2S,3R,5S,7S)-5-(2,2-dimethyl-propionylamino)-adamantan-2-ylcarbamoyl]-benzyl}-4-oxo-1-phenyl-1,4-dihydro-quinoline-2-carboxylic acid methyl ester]
42	1900	COC(=O)c1c(Cc2ccc(C(=O)N[C@@H]3[C@@H]4C[C@@H]5C[C@H]3C[C@@](NC(=O)C(C)(C)O)(C5)C4)cc2)c(=O)c2ccc(Cl)cc2n1-c1ccccc1 [Compound I-13, rel-7-Chloro-3-{4-[(1S,2S,3R,5S,7S)-5-(2-hydroxy-2-methyl-propionylamino)-adamantan-2-ylcarbamoyl]-benzyl}-4-oxo-1-phenyl-1,4-dihydro-quinoline-2-carboxylic acid methyl ester]
26	3100	COC(=O)c1c(Cc2ccc(C(=O)N[C@@H]3[C@@H]4C[C@@H]5C[C@H]3C[C@@](NS(=O)(=O)C3CC3)(C5)C4)cc2)c(=O)c2ccc(Cl)cc2n1-c1ccccc1 [Compound I-14, rel-7-Chloro-3-[4-((1S,2S,3R,5S,7S)-5-cyclopropanesulfonylamino-adamantan-2-ylcarbamoyl)-benzyl]-4-oxo-1-phenyl-1,4-dihydro-quinoline-2-carboxylic acid methyl ester]
57	3200	COC(=O)c1c(Cc2ccc(C(=O)N[C@@H]3[C@@H]4C[C@@H]5C[C@H]3C[C@@](NS(C)(=O)=O)(C5)C4)cc2)c(=O)c2ccc(Cl)cc2n1-c1ccccc1 [Compound I-15, rel-7-Chloro-3-[4-((1S,2S,3R,5S,7S)-5-methanesulfonylamino-adamantan-2-ylcarbamoyl)-benzyl]-4-oxo-1-phenyl-1,4-dihydro-quinoline-2-carboxylic acid methyl ester]
10	1900	COC(=O)c1c(Cc2ccc(C(=O)N[C@@H]3[C@@H]4C[C@@H]5C[C@H]3C[C@@](NCC(C)(C)O)(C5)C4)cc2)c(=O)c2ccc(Cl)cc2n1-c1ccccc1 [Compound I-16, rel-7-Chloro-3-{4-[(1S,2S,3R,5S,7S)-5-(2-hydroxy-2-methyl-propylamino)-adamantan-2-ylcarbamoyl]-benzyl}-4-oxo-1-phenyl-1,4-dihydro-quinoline-2-carboxylic acid methyl ester]

Compound	IC50 (JNK1) [nM]	EC50 [1] [nM]
COC(=O)c1c(Cc2ccc(C(=O)N[C@@H]3[C@@H]4C[C@@H]5C[C@H]3C[C@@](OC(C)=O)(C5)C4)cc2)c(=O)c2ccc(Cl)cc2n1-c1ccccc1 [Compound I-6, rel-3-[4-((1S,2S,3R,5S,7S)-5-Acetoxy-adamantan-2-ylcarbamoyl)-benzyl]-7-chloro-4-oxo-1-phenyl-1,4-dihydro-quinoline-2-carboxylic acid methyl ester]	110	4400
COC(=O)c1c(Cc2ccc(C(=O)N[C@@H]3[C@@H]4C[C@@H]5C[C@H]3C[C@@](NC(=O)C(C)(C)OC(C)=O)(C5)C4)cc2)c(=O)c2ccc(Cl)cc2n1-c1ccccc1 [Compound I-12, rel-3-{4-[(1S,2S,3R,5S,7S)-5-(2-Acetoxy-2-methyl-propionylamino)-adamantan-2-ylcarbamoyl]-benzyl}-7-chloro-4-oxo-1-phenyl-1,4-dihydro-quinoline-2-carboxylic acid methyl ester]	17	3300
